For this experiment, the system named is log phase S. aureus. Description: Time-kill studies for 240 minutes, Example 3. It is filed as cell-based. As to conditions: alone at 0.01% w/v, FIG. 6. On the procedure:
FIGS. 4, 5 and 6 contain the results of the time-kill studies then carried out against log phase S. aureus for 240 minutes (4 hours).
These formulations included chlorhexidine digluconate at either 0.06% w/v, 0.04% w/v, 0.03% w/v or 0.015% w/v.
Corsodyl® Daily Defence mouthwash 0.06% is a commercially available product manufactured by GlaxoSmithKline which contains 0.06% w/v chlorhexidine digluconate.
The time to zero values for each of the FIGS. 4 to 6 are shown below in Table 4.

With `Cc1nc2ccc(Oc3ccccc3)cc2c2c1CCN2CCc1ccccc1` [HT61, 4-methyl-8-phenoxy-1-(2-phenylethyl)-2,3-dihydro-1H-pyrrolo[3,2-c]quinoline], the “antimicrobial activity against log phase S. aureus” value was “does not have significant antimicrobial activity”.

Values taken from patent US20180214440A1, “ORAL COMPOSITION” (HELPERBY THERAPEUTICS LIMITED, priority 2015, published 2018).
